Data as given in US9796753B2, “N-substituted indenoisoquinolines and syntheses thereof” (Purdue Research Foundation, priority 2005, dated 2017).
Where two headings read alike, the source gives them in different places.

Tests used:
Type in all cases: cell-based
[1] = system: CNS SF-539; assay: COMPARE screening (NCI human cancer cell line screen), cytotoxicity GI50
Experimental: (§1) Selected compounds were tested for antiproliferative activity in the National Cancer Institute's developmental therapeutics assay 60 cell line screen (NCI60). The cells were incubated with the tested compounds at 100, 10, 1, 0.1, and 0.01 μM concentrations for 48 h before treatment with sulforhodamine B dye. Optical densities were recorded, and their ratios relative to that of the control were plotted as percentage growth against the log 10 of the tested compound concentrations.

[2] = system: colon HCT-116; assay: as above
Experimental: as §1

[3] = system: lung HOP-62; assay: as above
Experimental: as §1

[4] = system: melanoma UACC-62; assay: as above
Experimental: as §1

[5] = system: ovarian OVCAR-3; assay: as above
Experimental: as §1

[6] = system: prostate DU-145; assay: as above
Experimental: as §1

[7] = system: renal SN12C; assay: as above
Experimental: as §1

[8] = system: breast MDA-MB-435; assay: as above
[9] = system: all human cancer cell lines successfully tested; assay: NCI screen mean graph midpoint (MGM) for growth inhibition
Experimental: COMPARE screening. The compounds described herein were examined for antiproliferative activity against the human cancer cell lines in the National Cancer Institute screen (COMPARE screening), in which the activity of each compound was evaluated with approximately 55 different cancer cell lines of diverse tumor origins. […] Therefore, the MGM value represents an overall assessment of toxicity of the compound across numerous cell lines.
as §1
The cytotoxicities of the compounds to cultured cancer cells were measured in the National Cancer Institute's 60 cell line assay (a.k.a. NCI-60).

[10] = Table 1, average GI50 of all cell lines tested (approximately 55), test range 10^−8 to 10^−4 molar
[11] = Homo sapiens, CNSSF-539, read-out: cytotoxicity (GI50) CNS SF-539
[12] = Homo sapiens, HCT-116, read-out: cytotoxicity (GI50) colon HCT-116
[13] = Homo sapiens, HOP-62, read-out: cytotoxicity (GI50) lung HOP-62
[14] = Homo sapiens, UACC-62, read-out: cytotoxicity (GI50) melanoma UACC-62
[15] = Homo sapiens, OVCAR-3, read-out: cytotoxicity (GI50) ovarian OVCAR-3
[16] = Homo sapiens, DU-145, read-out: cytotoxicity (GI50) prostate DU-145
[17] = Homo sapiens, SN12C, read-out: cytotoxicity (GI50) renal SN12C
[18] = Homo sapiens, MDA-MB-435, read-out: cytotoxicity (GI50) breast MDA-MB-435
[19] = all human cancer cell lines successfully tested

Molecule	GI50 [1]	GI50 [2]	GI50 [3]	GI50 [4]	GI50 [5]	GI50 [6]	GI50 [7]	GI50 [8]	MGM (mean GI50 across cell lines) [9, 10]	MGM (mean graph midpoint for growth inhibition) [9, 10]	also measured
O=C1c2ccccc2-c2oc(=O)c3cc4c(cc3c21)OCO4 [Compound 4b]	> 100 µM	> 100 µM	53.7 µM	> 100000 nM	> 100 µM	> 100 µM	> 100000 nM	> 100 µM	57.5 µM	–	–
O=C1c2ccccc2-c2oc(=O)c3cc([N+](=O)[O-])ccc3c21 [Compound 4c, 3-nitrobenz[d]indeno[1,2-b]pyran-5,11-dione]	–	–	–	–	–	–	–	–	64.6 µM	–	GI50 [1, 11]: > 100 µM; GI50 [2, 12]: 47.9 µM; GI50 [3, 13]: 18.2 µM; GI50 [4, 14]: 25100 nM; GI50 [5, 15]: > 100 µM; GI50 [6, 16]: > 100 µM; GI50 [7, 17]: > 100000 nM; GI50 [8, 18]: > 100 µM
O=C1c2ccccc2-c2oc(=O)c3ccccc3c21 [Compound 4d, Benz[d]indeno[1,2-b]pyran-5,11-dione]	–	–	–	–	–	–	–	–	>100 µM	–	GI50 [1, 11]: > 100 µM; GI50 [2, 12]: > 100 µM; GI50 [3, 13]: > 100 µM; GI50 [4, 14]: > 100000 nM; GI50 [5, 15]: > 100 µM; GI50 [6, 16]: > 100 µM; GI50 [7, 17]: > 100000 nM; GI50 [8, 18]: > 100 µM
CC(C)(C)OC(=O)NCCCCCCCCn1c2c(c3ccccc3c1=O)C(=O)c1ccccc1-2 [Compound 5ag, 6-(8′-tert-BOC-Aminooctyl)-5,6-dihydro-5,11-dioxo-11H-indeno[1,2-c]isoquinoline]	8.71 µM	25.7 µM	10.7 µM	15500 nM	–	> 50.1 µM	> 50100 nM	> 50.1 µM	19.9 µM	–	–
CC(C)(C)OC(=O)NCCCCCCCCCCn1c2c(c3ccccc3c1=O)C(=O)c1ccccc1-2 [Compound 5ai, 6-(10′-tert-BOC-Aminodecyl)-5,6-dihydro-5,1-dioxo-11H-indeno[1,2-c]isoquinoline]	42.7 µM	60.3 µM	28.8 µM	43600 nM	> 100 µM	97.7 µM	> 100000 nM	> 100 µM	52.5 µM	–	–
CC(C)(C)OC(=O)NCCCCCCCCCCCn1c2c(c3ccccc3c1=O)C(=O)c1ccccc1-2 [Compound 5aj, 6-(11′-tert-BOC-Anminoundecyl)-5,6-dihydro-5,11-dioxo-11H-indeno[1,2-c]isoquinoline]	29.5 µM	35.5 µM	20.9 µM	24000 nM	70.8 µM	91.2 µM	> 100000 nM	> 100 µM	–	42.6 ± 5.35 µM	–
CC(C)(C)OC(=O)NCCCCCCCCCCCCn1c2c(c3ccccc3c1=O)C(=O)c1ccccc1-2 [Compound 5ak, 6-(12′-tert-BOC-Aminododecyl)-5,6-dihydro-5,1-dioxo-11H-indeno[1,2-c]isoquinoline]	20.4 µM	> 100 µM	32.4 µM	27500 nM	> 100 µM	91.2 µM	> 100000 nM	> 100 µM	51.3 µM	–	–
Cl.NCCn1c2c(c3ccccc3c1=O)C(=O)c1ccccc1-2 [Compound 5al]	0.21 µM	0.27 µM	0.62 µM	920 nM	0.71 µM	0.76 µM	490 nM	0.92 µM	–	0.530 ± 0.320 µM	–
Cl.NCCCn1c2c(c3ccccc3c1=O)C(=O)c1ccccc1-2 [Compound 5am]	0.25 µM	0.18 µM	0.2 µM	260 nM	1.38 µM	0.22 µM	160 nM	0.78 µM	–	0.32 ± 0.23 µM	–
Cl.NCCCCn1c2c(c3ccccc3c1=O)C(=O)c1ccccc1-2 [Compound 5an]	0.1 µM	0.1 µM	0.08 µM	50 nM	0.52 µM	0.01 µM	40 nM	0.84 µM	–	0.16 ± 0.01 µM	–
Cl.NCCCCCn1c2c(c3ccccc3c1=O)C(=O)c1ccccc1-2 [Compound 5ao, 6-(5-Aminopentyl)-5,6-dihydro-5,11-diketo-11H-indeno[1,2-c]isoquinoline Hydrochloride]	–	–	–	–	–	–	–	–	–	0.471 ± 0.054 µM	GI50 [1, 11]: 0.871 µM; GI50 [2, 12]: 0.2 µM; GI50 [3, 13]: 0.288 µM; GI50 [4, 14]: 1350 nM; GI50 [5, 15]: 0.708 µM; GI50 [6, 16]: 0.347 µM; GI50 [7, 17]: 398 nM; GI50 [8, 18]: 1.35 µM
Cl.NCCCCCCn1c2c(c3ccccc3c1=O)C(=O)c1ccccc1-2 [Compound 5ap, 6-(6-Aminohexyl)-5,6-dihydro-5,11-diketo-11H-indeno[1,2-c]isoquinoline Hydrochloride]	–	–	–	–	–	–	–	–	1.32 µM	–	GI50 [1, 11]: 1.23 µM; GI50 [2, 12]: 0.912 µM; GI50 [3, 13]: 1.29 µM; GI50 [4, 14]: 1620 nM; GI50 [5, 15]: 2 µM; GI50 [6, 16]: 0.603 µM; GI50 [7, 17]: 1320 nM; GI50 [8, 18]: 2.04 µM
CN(C)CCCn1c2c(c3cc4c(cc3c1=O)OCO4)C(=O)c1ccccc1-2 [Compound 5b]	2.69 µM	< 0.01 µM	< 0.01 µM	300 nM	2.63 µM	2.04 µM	23 nM	3.02 µM	0.525 µM	–	–
COc1ccc2c(c1)C(=O)c1c-2n(CCCN)c(=O)c2ccccc12.Cl [Compound 5bg]	0.038 µM	< 0.01 µM	< 0.01 µM	–	0.028 µM	0.014 µM	< 10 nM	0.059 µM	–	0.048 ± 0.024 µM	–
O=C1c2ccccc2-c2c1c1ccc([N+](=O)[O-])cc1c(=O)n2CCCN1CCOCC1 [Compound 5bi]	0.095 µM	0.038 µM	0.021 µM	380 nM	–	0.085 µM	309 nM	1.23 µM	–	0.632 ± 0.029 µM	–
COc1ccc2c(c1)C(=O)c1c-2n(CCCNCCO)c(=O)c2cc([N+](=O)[O-])ccc12.Cl [Compound 5bm]	< 0.01 µM	–	< 0.01 µM	< 10 nM	< 0.01 µM	< 0.03 µM	12 nM	< 0.01 µM	0.016 µM	–	–
Cl.O=C1c2ccccc2-c2c1c1ccccc1c(=O)n2CCCNCCO [Compound 5bo]	0.55 µM	–	0.195 µM	178 nM	0.55 µM	0.174 µM	269 nM	0.49 µM	0.339 µM	–	–
COc1cc2c3c(n(CCCn4ccnc4)c(=O)c2cc1OC)-c1cc2c(cc1C3=O)OCO2.Cl [Compound 5l, Hydrochloride]	0.037 µM	< 0.01 µM	< 0.01 µM	< 10 nM	–	< 0.01 µM	< 10 nM	0.02 µM	–	–	GI50 ([5]; Table 1, concentration corresponding to 50% growth inhibition, read-out: cytotoxicity (GI50) ovarian OVCAR-3): 0.085 µM
COc1cc2c3c(n(CCCNCCCNCCCn4c5c(c6ccccc6c4=O)C(=O)c4ccccc4-5)c(=O)c2cc1OC)-c1cc2c(cc1C3=O)OCO2.O=C(O)C(F)(F)F.O=C(O)C(F)(F)F [Compound 17a, 1,3-{6-(3-Amino-1-propyl)-5,6-dihydro-2,3-dimethoxy-8,9-methylenedioxy-5,1-dioxo-11H-indeno[1,2-c]isoquinoline}-{5′,6′-Dihydro-6′-(3′-amino-1′-propyl)-5′,11′-dioxo-11′H-indeno[1,2-c]isoquinoline}propane Bis(trifluoroacetate)]	–	–	–	–	–	–	–	–	–	–	GI50 ([1]; CNS SF-539, concentration corresponding to 50% growth inhibition, read-out: cytotoxicity (GI50 in μM) CNS SF-539): < 0.01 µM; GI50 ([2]; colon HCT-116, concentration corresponding to 50% growth inhibition, read-out: cytotoxicity (GI50 in μM) colon HCT-116): 0.022 µM; GI50 ([3]; lung HOP-62, concentration corresponding to 50% growth inhibition, read-out: cytotoxicity (GI50 in μM) lung HOP-62): 0.191 µM; GI50 ([5]; ovarian OVCAR-3, concentration corresponding to 50% growth inhibition, read-out: cytotoxicity (GI50 in μM) ovarian OVCAR-3): < 0.01 µM; GI50 ([6]; prostate DU-145, concentration corresponding to 50% growth inhibition, read-out: cytotoxicity (GI50 in μM) prostate DU-145): 0.01 µM; GI50 ([8]; breast MDA-MB-435, concentration corresponding to 50% growth inhibition, read-out: cytotoxicity (GI50 in μM) breast MDA-MB-435): 0.155 µM; MGM (mean graph midpoint for growth inhibition) [9, 19]: 0.046 ± 0.010 µM
Bis-1,2-{(5,6-dihydro-5,11-diketo-11H-indeno[1,2-c]isoquinoline)-6-ethylamino-ethylamino}ethane Tetra(trifluoroacetate) [Compound 14j]	0.012 µM	0.2 µM	0.977 µM	–	0.032 µM	0.085 µM	–	0.126 µM	–	–	MGM (mean graph midpoint for growth inhibition) [9, 19]: 0.262 ± 0.100 µM
